Test results taken from patent US12441679B2, “Acrylamide-substituted indane compounds and therapeutic use thereof” (Sanofi, priority 2020, dated 2025).

test system: YAP1-TEAD and TAZ-TEAD activity (TEAD responsive promoter element); experiment: TEAD-Luciferase Reporter Assay (8XGTIIC-Luciferase construct stably integrated in tumor cell lines); type: cell-based, human; conditions: Homo sapiens; 8XGTIIC-Luciferase reporter in tumor cell lines, 48 hrs compound treatment, 10 doses 1-10000 nM
Text: TEAD-Luciferase Reporter Assay
Luciferase-based gene reporter assays were used, employing the TEAD responsive promoter element that are stably integrated to different human tumor cell lines in order to monitor YAP1-TEAD and TAZ-TEAD activity and to study YAP1/TAZ-TEAD activity modulation by small molecule compounds. Luciferase-based gene reporter assays employing the GAPDH promoter element and stably integrated to different human tumor cell lines are used as counter screen control cell lines.
Tumor cell lines with stable integration of the 8XGTIIC-Luciferase construct (Dupont et al., Nature 2011) or the GAPDH-Luciferase control plasmid, are seeded in culture medium in 96-well plates at a density of 8000 cells/well. Following an overnight incubation in a 37° C., 5% CO2 growth chamber, cells are treated with compounds described above at 10 doses ranging between 1 and 10000 nM for 48 hrs. After compound incubation, cells are lysed with Bright-Glo Luciferase Assay System (Promega E2620) and luciferase activity is measured using a luminescent plate reader.
The inhibitory activity of the compounds with respect to luciferase activity is given by the concentration which inhibits 50% of activity of non-treated cells. IC50s are determined with a nonlinear regression model on XLfit software analysis (IDBS, UK).

Row | SMILES | IC50 [nM]
1 | C=CC(=O)Nc1ccc2c(c1)[C@@H](Nc1cccc(C(F)(F)F)c1)[C@H](O)C2 (racemic) [Example 96, N-[rac-(2R,3R)-2-hydroxy-3-[3-(trifluoromethyl)anilino]-2,3-dihydro-1H-inden-5-yl]acrylamide] | 1980
2 | C=CC(=O)Nc1ccc2c(c1)CC(N[C@H]1CC[C@@H](C(F)(F)F)CC1)C2 (relative stereo) [Example 26, N-(2-(((cis)-4-(trifluoromethyl)cyclohexyl)amino)-2,3-dihydro-1H-inden-5-yl)acrylamide] | > 10000
3 | C=CC(=O)Nc1ccc2c(c1)CC(N[C@H]1CC[C@H](C(F)(F)F)CC1)C2 (relative stereo) [Example 27, N-(2-(((trans)-4-(trifluoromethyl)cyclohexyl)amino)-2,3-dihydro-1H-inden-5-yl)acrylamide] | > 10000
4 | C=CC(=O)Nc1ccc2c(c1)C(O[C@H]1CC[C@H](C(F)(F)F)CC1)CC2 (relative stereo) [Example 36, N-(3-(((trans)-4-(trifluoromethyl)cyclohexyl)oxy)-2,3-dihydro-1H-inden-5-yl)acrylamide] | 99
5 | C=CC(=O)Nc1ccc2c(c1)[C@@H](OC)C[C@H]2Nc1cccc(C(F)(F)F)c1 (relative stereo) [Example 94, N-[(cis)-3-methoxy-1-[3-(trifluoromethyl)anilino]-2,3-dihydro-1H-inden-5-yl]acrylamide] | 395
6 | C=CC(=O)Nc1ccc2c(c1)C[C@@H](O)[C@@H]2Nc1cccc(C(F)(F)F)c1 (relative stereo) [Example 95, N-[(trans)-2-hydroxy-1-[3-(trifluoromethyl)anilino]-2,3-dihydro-1H-inden-5-yl]acrylamide] | 653
7 | C=CC(=O)Nc1ccc2c(c1)C[C@@H](Nc1cccc(F)c1)C2 (single isomer, unassigned) [Example 48] | 69
8 | C=CC(=O)Nc1ccc2c(c1)C[C@H](Nc1cccc(F)c1)C2 (single isomer, unassigned) [Example 49] | 105
9 | C=CC(=O)Nc1ccc2c(c1)C[C@H](Nc1cccc(C(F)(F)F)c1)C2 (single isomer, unassigned) [Example 50] | 76
10 | C=CC(=O)Nc1ccc2c(c1)C[C@@H](Nc1cccc(C(F)(F)F)c1)C2 (single isomer, unassigned) [Example 51] | 4330
11 | C=CC(=O)Nc1ccc2c(c1)CC[C@H]2Nc1ccc(C(F)(F)F)cc1 (single isomer, unassigned) [Example 55] | 38
12 | C=CC(=O)Nc1ccc2c(c1)CC[C@@H]2Nc1ccc(C(F)(F)F)cc1 (single isomer, unassigned) [Example 56] | 44
13 | C=CC(=O)Nc1ccc2c(c1)CC[C@@H]2Nc1cc(C(F)(F)F)ccn1 (single isomer, unassigned) [Example 57] | 134
14 | C=CC(=O)Nc1ccc2c(c1)CC[C@H]2Nc1cc(C(F)(F)F)ccn1 (single isomer, unassigned) [Example 58] | 216
15 | C=CC(=O)Nc1ccc2c(c1)CC[C@@H]2Oc1cccc(C(F)(F)F)c1 (single isomer, unassigned) [Example 84] | 153
16 | C=CC(=O)Nc1ccc2c(c1)CC[C@H]2Oc1cccc(C(F)(F)F)c1 (single isomer, unassigned) [Example 85] | 42
17 | C=CC(=O)Nc1ccc2c(c1)[C@@H](Oc1ccc(C(F)(F)F)cc1)CC2 (single isomer, unassigned) [Example 86] | 134
18 | C=CC(=O)Nc1ccc2c(c1)[C@H](Oc1ccc(C(F)(F)F)cc1)CC2 (single isomer, unassigned) [Example 87] | 28
19 | C=CC(=O)Nc1ccc2c(c1)CCC2Nc1cccc(C(F)(F)F)c1 (stereo not drawn) [Example 1, N-(1-((3-(trifluoromethyl)phenyl)amino)-2,3-dihydro-1H-inden-5-yl)acrylamide] | 72
20 | C=CC(=O)N(C)c1ccc2c(c1)CCC2Nc1cccc(C(F)(F)F)c1 (stereo not drawn) [Example 4, N-methyl-N-(1-((3-(trifluoromethyl)phenyl)amino)-2,3-dihydro-1H-inden-5-yl)acrylamide] | 142
21 | C=CC(=O)Nc1ccc2c(c1)CCC2Nc1ccc(F)cc1 (stereo not drawn) [Example 5, N-(1-((4-fluorophenyl)amino)-2,3-dihydro-1H-inden-5-yl)acrylamide] | 29
22 | C=CC(=O)Nc1ccc2c(c1)CC[C@H]2Nc1ccc(F)cc1 [Example 7, (R)—N-(1-((4-fluorophenyl)amino)-2,3-dihydro-1H-inden-5-yl)acrylamide] | 28
23 | C=CC(=O)Nc1ccc2c(c1)CCC2Nc1cccc(F)c1 (stereo not drawn) [Example 8, N-(1-((3-fluorophenyl)amino)-2,3-dihydro-1H-inden-5-yl)acrylamide] | 132

Row | SMILES | IC50 [nM]
24 | C=CC(=O)Nc1ccc2c(c1)CCC2Nc1cc(F)cc(F)c1 (stereo not drawn) [Example 9, N-(1-((3,5-difluorophenyl)amino)-2,3-dihydro-1H-inden-5-yl)acrylamide] | 167
25 | C=CC(=O)Nc1ccc2c(c1)CCC2Nc1ccc(C(F)(F)F)cc1 (stereo not drawn) [Example 10, N-(1-((4-(trifluoromethyl)phenyl)amino)-2,3-dihydro-1H-inden-5-yl)acrylamide] | 44
26 | C=CC(=O)Nc1ccc2c(c1)C(Nc1cccc(C(F)(F)F)c1)CC2 (stereo not drawn) [Example 11, N-(3-((3-(trifluoromethyl)phenyl)amino)-2,3-dihydro-1H-inden-5-yl)acrylamide] | 37
27 | C=CC(=O)Nc1ccc2c(c1)C(Nc1ccc(C(F)(F)F)cc1)CC2 (stereo not drawn) [Example 12, N-(3-((4-(trifluoromethyl)phenyl)amino)-2,3-dihydro-1H-inden-5-yl)acrylamide] | 55
28 | C=CC(=O)Nc1ccc2c(c1)C(Nc1ccc(F)c(F)c1)CC2 (stereo not drawn) [Example 13, N-(3-((3,4-difluorophenyl)amino)-2,3-dihydro-1H-inden-5-yl)acrylamide] | 37
29 | C=CC(=O)Nc1ccc2c(c1)C(Nc1cccc(F)c1)CC2 (stereo not drawn) [Example 14, N-(3-((3-fluorophenyl)amino)-2,3-dihydro-1H-inden-5-yl)acrylamide] | 54
30 | C=CC(=O)Nc1ccc2c(c1)C(Nc1ccc(F)cc1)CC2 (stereo not drawn) [Example 15, N-(3-((4-fluorophenyl)amino)-2,3-dihydro-1H-inden-5-yl)acrylamide] | 48
31 | C=CC(=O)Nc1ccc2c(c1)CCC2Nc1ccc(F)c(F)c1 (stereo not drawn) [Example 16, N-(1-((3,4-difluorophenyl)amino)-2,3-dihydro-1H-inden-5-yl)acrylamide] | 38
32 | C=CC(=O)Nc1ccc2c(c1)CCC2Nc1cccc(OC)c1 (stereo not drawn) [Example 17, N-(1-((3-methoxyphenyl)amino)-2,3-dihydro-1H-inden-5-yl)acrylamide] | > 10000
33 | C=CC(=O)Nc1ccc2c(c1)CCC2Nc1cccc(C)c1 (stereo not drawn) [Example 18, N-(1-(m-tolylamino)-2,3-dihydro-1H-inden-5-yl)acrylamide] | 213
34 | C=CC(=O)Nc1ccc2c(c1)CCC2Nc1ccc(F)nc1 (stereo not drawn) [Example 19, N-(1-((6-fluoropyridin-3-yl)amino)-2,3-dihydro-1H-inden-5-yl)acrylamide] | 503
35 | C=CC(=O)Nc1ccc2c(c1)CCC2Nc1ccc(C(F)(F)F)nc1 (stereo not drawn) [Example 20, N-(1-((6-(trifluoromethyl)pyridin-3-yl)amino)-2,3-dihydro-1H-inden-5-yl)acrylamide] | 358
36 | C=CC(=O)Nc1ccc2c(c1)CCC2Nc1ccc(F)cn1 (stereo not drawn) [Example 21, N-(1-((5-fluoropyridin-2-yl)amino)-2,3-dihydro-1H-inden-5-yl)acrylamide] | 262
37 | C=CC(=O)Nc1ccc2c(c1)CCC2Nc1cccc(C(=O)OC)c1 (stereo not drawn) [Example 22, methyl-3-((5-acrylamido-2,3-dihydro-1H-inden-1-yl)amino)benzoate] | > 10000
38 | C=CC(=O)Nc1ccc2c(c1)C(NCc1ccccc1)CC2 (stereo not drawn) [Example 23, N-(3-(benzylamino)-2,3-dihydro-1H-inden-5-yl)acrylamide] | 9530
39 | C=CC(=O)Nc1ccc2c(c1)CCC2NCc1cccc(C(F)(F)F)c1 (stereo not drawn) [Example 24, N-(1-((3-(trifluoromethyl)benzyl)amino)-2,3-dihydro-1H-inden-5-yl)acrylamide] | 8040
40 | C=CC(=O)Nc1ccc2c(c1)CCC2NCc1ccc(C(F)(F)F)cc1 (stereo not drawn) [Example 25, N-(1-((4-(trifluoromethyl)benzyl)amino)-2,3-dihydro-1H-inden-5-yl)acrylamide] | 8240
41 | C=CC(=O)Nc1ccc2c(c1)CC(NC1CCC(F)(F)CC1)C2 (stereo not drawn) [Example 28, N-(2-((4,4-difluorocyclohexyl)amino)-2,3-dihydro-1H-inden-5-yl)acrylamide] | 4020
42 | C=CC(=O)Nc1ccc2c(c1)CC(NCCCC(F)(F)F)C2 (stereo not drawn) [Example 29, N-(2-((4,4,4-trifluorobutyl)amino)-2,3-dihydro-1H-inden-5-yl)acrylamide] | > 10000
43 | C=CC(=O)Nc1ccc2c(c1)CC(NCCCF)C2 (stereo not drawn) [Example 30, N-(2-((3-fluoropropyl)amino)-2,3-dihydro-1H-inden-5-yl)acrylamide] | > 10000
44 | C=CC(=O)Nc1ccc2c(c1)CC(Nc1cccc(F)c1)C2 (stereo not drawn) [Example 31, N-(2-((3-fluorophenyl)amino)-2,3-dihydro-1H-inden-5-yl)acrylamide] | 20
45 | C=CC(=O)Nc1ccc2c(c1)CC(Nc1cccc(C(F)(F)F)c1)C2 (stereo not drawn) [Example 32, N-(2-((3-(trifluoromethyl)phenyl)amino)-2,3-dihydro-1H-inden-5-yl)acrylamide] | 64
